US10124001B2, “Stem cell modulation II” (University of Canberra, priority 2013, dated 2018)
Entries after “also recorded” stand apart in the source; their conditions may differ.

Tests used:
MCF-7 cells [1] = test: TaqMan real time PCR transcript analysis of inducible EMT/CSC genes in MCF-IM model; type: cell-based, human; conditions: for transcription of key inducible EMT/CSC genes (laminin-5, uPAR, CD44): 1 hour prior to PMA 60 hrs
Text: (§1) Human TaqMan™ primer sets used were: CD44, Hs00153304, CD24, Hs00273561, uPAR, Hs00182181, Laminin-5, Hs00194333, Zeb-1, Hs00611018, Fibronectin, Hs00415006 and Integrin-β, Hs00168458 (Applied Biosystems). Primers used for SYBR Green real-time PGR are: Zeb1 (sense: 5′-[…]-3′ and antisense: 5′-[…]-3′) and Cyclophilin A (sense: 5′-[…]-3′ and antisense: 5′-CACCACATGCTTGCCATCC-3′).
(§2) Total RNA was extracted using TRIzol® Reagent (Invitrogen) and first strand cDNA was synthesized using the Superscript™ III RNase H-reverse transcriptase kit (Invitrogen). TaqMan® Gene Expression Assays and SYBR Green real-time PCR were performed as previously described (Sutcliffe et al., 2009, Molecular and Cellular Biology, 29: 1972-86). MicroRNA assays were performed with the TaqMan® MicroRNA Reverse Transcription Kit (ABI 4366596) and the data were normalized to RNU6B as previously described in Sutcliffe et al. ([…], Molecular Cell 41:704-719).

MCF-7 cells [2] = test: FACS analysis of CD44high/CD24low CSC-like subpopulation in MCF-IM model; type: cell-based, human; conditions: for CSC formation (CD44high/CD24low, FACS): compound 27 1 uM for 24 hours pre-treatment, PMA 0.65 ng/ml 60 h; for CD44 high CD24 low CSC-like subpopulation (FACS): bisindolylmaleimide-I 100 nm and 1 μM or Go6976 1 μM prior to PMA 60 hrs
Experimental: (§3) The adherent human mammary adenocarcinoma MCF-7 and MDA-MB-231 cells were cultured in low glucose DMEM (Gibco) and both supplemented with 10% FCS, 2 mM L-glutamine and 0.1% PSN antibiotics. Cells were stimulated with 0.65 ng/ml of phorbol 12-myristate 13-acetate (PMA) (Sigma-Aldrich) or 20 ng/ml of TGF-β (R&D systems) for the times indicated. For Bisindolylmaleimide-I (Calbiochem) or PKC-θ peptide inhibitor (Calbiochem) studies, cells were pre-treated with 1 μM or 30 μM of inhibitor respectively for 1 h prior to stimulation in MCF-7 cells. In case of MDA-MB-231, cells were treated with 4 μM or 30 μM Bisindolylmaleimide-I or PKC-θ peptide inhibitor respectively.
(§4) To separate CSC from non-CSC (NCSC), florescence activated cell sorting (FACS) was performed on single-cell suspensions that were stained with anti-CD44-APC (559942, BD Biosciences) and anti-CD24-PE antibodies (555428, BD Biosciences) along with Hoechst 33258 to monitor cell viability. As used throughout this work, CSC are defined by minority CD44^high/CD24^low, whereas NCSC are defined by rest of the cell populations.

PKC-θ [3] = target: PKC-θ (Homo sapiens, UniProt Q04759); test: PKC ELISA-based kinase assay, in-vitro PKC-θ activity; type: biochemical; conditions: FIG. 6A
Experimental: (§5) PKC activity assay were purchased from Enzo Life Sciences (DI-EKS-420A) and assays were performed according to the manufacture's protocol as previously described (Sutcliffe, 2012, supra).
(§6) PKC-θ and PKC-β activity assays (Enzo Life Sciences; DI-EKS-420A) were performed according to the manufacturer's protocol and as previously described (Sutcliffe et. Al., 2012. Chromatinized Protein Kinase C-theta: Can It Escape the Clutches of NF-kappaB? Front Immunol 3:260).

NF-κB p50 and p65 = test: NF-κB activity assay (TransAM NF-κB Family kit), MCF-IM nuclear extracts; type: cell-based, human; conditions: MCF-IM treated with C27 vs vehicle
Experimental: TransAM NF-κB Family kit was used for NF-κB activity assays (43296, Active Motif). Assays were performed according to the manufacturer's guidelines. 5 μg protein from MDA-MB231 or MCF-IM derived whole cell, nuclear and cytoplasmic extracts were used in triplicate for the assays. Raji nuclear extract was used as a positive control Wild-type and mutated consensus oligonucleotides were also used as a negative and positive controls respectively.

PKC = PKC ELISA-based kinase assay of nuclear or cytoplasmic extract from MCF-IM; type: cell-based, human; conditions: assays without specific immunoprecipitates, global PKC activity (FIG. 6B)
Experimental: as §5, §6

NF-κB p65 = test: Immunoblotting of MCF-IM nuclear and cytoplasmic fractions for NF-κB p65; type: cell-based, human
Experimental: Immunoblot analysis was performed according to the manufacturer's protocol and as previously described (Rao et al., 2003 c-Rel is required for chromatin remodeling across the IL-2 gene promoter. Journal of immunology 170:3724-3731.) with anti-PKC-θ (sc-212, SantaCruz), anti-p65 (ab7970, Abcam), anti-p65 phospho (ser-468) (3039, Cell Signaling), anti-p65 phospho (ser-536) (3031, Cell Signaling) and RNA Pol II(c-21) (ab817, Abcam) antibodies.

MCF-7 cells [4] = test: EMT morphology by phase contrast microscopy in MCF-IM model; type: cell-based, human
Experimental: as §3, with “Cells were stimulated with 0.65 ng/ml of phorbol 12-myristate 13-acetate (PMA) (Sigma-Aldrich) or 20 ng/ml of TGF-β (R&D systems) for the times indicated.” left out
(§7) phase contrast microscopy was performed where cells were viewed at ×4 magnification (wound healing assay) or ×10 magnification (EMT) using an Olympus fluorescence 1X^71 microscope (Olympus) and images were captured using DPController software (2002 Olympus Optical Co. LTD) and analysed using Photoshop CS3 (Adobe Systems Inc.). Scans were taken with a 10 μm scale bar.

MDA-MB 231 cells [5] = test: EMT morphology by phase contrast microscopy in basal/metastatic model; type: cell-based, human; conditions: Bisindolylmaleimide 4 μM
Experimental: as §3, §7

MCF-7 cells [6] = test: Mammosphere assay in MCF-IM model; type: cell-based, human; conditions: 1 μM for 1 hr prior to PMA stimulation, 6 days; mammospheres larger than 60 μm counted
Experimental: Mammosphere culture media components were purchased from StemCell Technologies and mammosphere assays were performed as recommended by the manufacturer's guidelines. Briefly, 40,000 cells/2 ml cell dilutions were then prepared and 2 ml of cells were seeded in the 6 well-ultralow adherent, flat bottom plates (Costar). Mammospheres larger than 60 μm were counted per well on day 7 and pictures were taken.

MDA-MB 231 cells [7] = test: TaqMan real time PCR transcript analysis of EMT/CSC genes in basal/metastatic model; type: cell-based, human; conditions: bisindolylmaleimide-I 4 μM
Text: as §1, §2

MDA-MB 231 cells [8] = test: FACS analysis of CD44high/CD24low CSC-like subpopulation in basal/metastatic model; type: cell-based, human; conditions: bisindolylmaleimide-I 4 μM
Experimental: as §3, §4

PKC-θ [9] = test: ChIP assay of PKC-θ chromatin association at CSC inducible gene promoters in MCF-IM model; type: cell-based, human
Experimental: ChIP buffers were purchased from Upstate Biotechnology and ChIP assays were performed according to the protocol supplied by Upstate Biotechnology as previously described (Sutcliffe et al., 2011, Molecular Cell. 41:704-719 ). Antibody used were: Anti-PKC-θ (Santa Cruz, sc-212), Anti-PKC-θ Phospho s695 (Abcam, ab76568) and Pol II c-21 (Abcam, ab817), Promoter primers used for RT-PCR were human CD44 (Fwd: […], Rev: […]), uPAR(Fwd: […], Rev: […]) and IL-6 (Fwd: […], Rev: […]). Sequential ChIP assays performed as described previously by Sutcliffe et al., (2011, Molecular Cell. 41: 704-719).

PKC-θ (Homo sapiens, UniProt Q04759), sequence (Q04759 whole entry): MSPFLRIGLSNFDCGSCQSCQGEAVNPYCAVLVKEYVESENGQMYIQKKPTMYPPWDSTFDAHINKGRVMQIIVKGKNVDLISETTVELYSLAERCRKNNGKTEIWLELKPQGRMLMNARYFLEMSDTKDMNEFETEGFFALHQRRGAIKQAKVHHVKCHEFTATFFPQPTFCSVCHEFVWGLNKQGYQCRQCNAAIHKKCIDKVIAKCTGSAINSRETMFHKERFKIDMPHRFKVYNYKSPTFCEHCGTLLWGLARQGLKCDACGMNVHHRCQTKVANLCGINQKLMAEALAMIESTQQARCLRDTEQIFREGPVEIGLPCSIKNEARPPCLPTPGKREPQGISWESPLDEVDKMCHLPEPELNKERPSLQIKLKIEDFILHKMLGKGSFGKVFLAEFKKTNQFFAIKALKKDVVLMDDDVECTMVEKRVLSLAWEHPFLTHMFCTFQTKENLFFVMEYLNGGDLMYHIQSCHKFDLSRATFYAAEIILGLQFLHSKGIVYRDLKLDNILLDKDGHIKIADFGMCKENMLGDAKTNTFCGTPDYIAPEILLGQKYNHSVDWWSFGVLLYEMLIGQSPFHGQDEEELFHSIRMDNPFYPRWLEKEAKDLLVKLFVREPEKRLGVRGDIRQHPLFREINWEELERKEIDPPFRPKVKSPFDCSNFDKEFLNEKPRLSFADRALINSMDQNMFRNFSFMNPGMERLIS

CC(C)[C@@](C)(O)[C@@H]1CN(c2nc(-c3n[nH]c4ncccc34)c(F)cc2Cl)CCN1 [Compound C27]
transcription of CSC inducible genes (MCF-7 cells [1]; C27 treatment, FIG. 6D): abolished
CSC formation (CD44high/CD24low, FACS) (MCF-7 cells [2]): abolished CSC formation
CSC formation (CD44high/CD24low, FACS) (MCF-7 cells [2]; listed as compound 27): prevents CSC formation
PKC-θ activity, in-vitro PKC-θ activity assay (PKC-θ [3]): abrogated PKC-θ activity
p50 nuclear activity (NF-κB p50 and p65): significantly decreased
p65 nuclear activity (NF-κB p50 and p65): significantly decreased
PKC-θ activity in nuclear and cellular extracts from MCF-IM pre-treated with C27 (PKC): abrogated PKC-θ activity
p65 in the cytoplasmic fraction (NF-κB p65; C27 treated epithelial and mesenchymal cells, cytoplasmic fraction): global accumulation of p65 was observed in the cytoplasmic fraction
p65 phosphorylation at serine 468 in nuclear extracts (NF-κB p65; MCF-IM nuclear extracts, with or without compound 27): this phosphorylation was inhibited
p65 abundance in the nuclei (pan-p65 antibody) (NF-κB p65; epithelial and mesenchymal state, nuclear fraction): inhibited p65 abundance in the nuclei

CCCCCCCCCCCCCC(=O)O[C@@H]1[C@@H](C)[C@@]2(O)[C@@H](C=C(CO)C[C@]3(O)C(=O)C(C)=C[C@@H]23)[C@@H]2C(C)(C)[C@]12OC(C)=O [PMA, Phorbol 12-Myristate 13-Acetate]
EMT (percentage of cells undergoing EMT, morphology) (MCF-7 cells [4]; PMA 20 ng/mL for 60 hr, compared with TNF-α, EGF, IL-6, TGF-β): results in maximal EMT; also recorded: caused highest EMT changes
generation of CD44high/CD24low CSC like cells (MCF-7 cells [2]; induction of PKC pathway by PMA 0.65 ng/mL 60 hr): results in the generation of CD44^high/CD24^low-CSC like cells

Cn1c2ccccc2c2c3c(c4c5ccccc5n(CCC#N)c4c21)CNC3=O [Go6976]
transcription of key inducible EMT/CSC genes (laminin-5, uPAR, CD44) (MCF-7 cells [1]; 1 μM): failed to inhibit transcription of key inducible EMT/CSC genes
PMA-induced EMT-like morphological changes (MCF-7 cells [4]; pre-incubation with Go6976): did not prevent PMA-induced EMT-like morphological changes
CD44 high CD24 low CSC-like subpopulation (FACS) (MCF-7 cells [2]): but not Go 6976 inhibits
PMA-induced CSC formation (MCF-7 cells [2]; pre-incubation with Go6976): did not prevent

CN(C)CCCn1cc(C2=C(c3c[nH]c4ccccc34)C(=O)NC2=O)c2ccccc21 [bisindolylmaleimide-I, Bisindolylmaleimide-I]
transcription of key inducible EMT/CSC genes (laminin-5, uPAR, CD44) (MCF-7 cells [1]; 100 nM): cannot inhibit transcription of key inducible EMT/CSC genes
transcription of key inducible EMT/CSC genes (laminin-5, uPAR, CD44) (MCF-7 cells [1]; 1 μM): inhibits transcription of key inducible EMT/CSC genes
EMT (morphology) (MDA-MB 231 cells [5]): inhibits EMT
EMT (morphology) (MCF-7 cells [4]; bisindolylmaleimide 1 μM, 1 hr pre-treatment before PMA stimulation 60 hrs): inhibits EMT
CD44 high CD24 low CSC-like subpopulation (FACS) (MCF-7 cells [2]): only very high concentration of bisindolylmaleimide-I
mammosphere formation (MCF-7 cells [6]): reduce mammosphere formation
transcription of key inducible EMT/CSC genes (laminin-5, uPAR, CD44) (MDA-MB 231 cells [7]): inhibits transcription of key inducible EMT/CSC genes
CD44 high CD24 low CSC-like subpopulation (FACS) (MDA-MB 231 cells [8]): inhibits CD44 high CD24 low-CSC-like subpopulation
binding of PKC-θ on the CD44 gene promoter (ChIP) (PKC-θ [9]; as worded in Example 4): reduction of binding of PKC-θ on the CD44 gene promoter
PKC-θ chromatin association across the uPAR promoter (ChIP) (PKC-θ [9]; bisindolylmaleimide-I 1 μM 1 hr pre-incubation, or siRNA 48 hrs, then PMA 60 hrs): reduces its chromatin association across the uPAR promoter
